Km and Ki data for 3 compounds are collected here from PMC12739383, “Optimization of solid-state fermentation conditions for high β-galactosidase-producing lactic acid bacteria and its application in low-lactose dairy products” (Frontiers in Bioengineering and Biotechnology, 2025).

What all share (assay type): biochemical, Lactiplantibacillus plantarum
Experiment [1] deals with T1, β-galactosidase produced by L. plantarum LP-15.
T1 construct: gene lacL; native enzyme from solid-state fermentation extract
Nature of the experiment: o-nitrophenol release at […] nm, Lineweaver-Burk, […]. To be noted: optimal conditions (pH 6.5, 42 °C); 50 mM phosphate buffer; partially purified enzyme; read-out: Value/Range.

Experiment [2] deals with T1, β-galactosidase produced by L. plantarum LP-15. Nature of the experiment: product inhibition kinetics. To be noted: competitive, inhibited substrate not told, partially purified enzyme, read-out: Value/Range. From the text: product inhibition kinetics on β-galactosidase produced by L. plantarum LP-15
The subject of experiment [3] is T1, β-galactosidase produced by L. plantarum LP-15. The experiment can be described thus: initial rate kinetics; lactose read-out not told. The note with it: conditions not given; partially purified enzyme; read-out: Value/Range. From the text:
initial rate kinetics; lactose read-out not told on β-galactosidase produced by L. plantarum LP-15

For `O=[N+]([O-])c1ccccc1O[C@@H]1O[C@H](CO)[C@H](O)[C@H](O)[C@H]1O` [ONPG, o-Nitrophenyl-β-D-galactopyranoside], the Km in experiment [1] was found to be 2.8 ± 0.1 mM.

`OC[C@H]1OC(O)[C@H](O)[C@@H](O)[C@H]1O` (stereo partly drawn) [galactose]: the Ki in experiment [2] came out at 85 mM. Take `OC[C@H]1O[C@@H](O[C@H]2[C@H](O)[C@@H](O)C(O)O[C@@H]2CO)[C@H](O)[C@@H](O)[C@H]1O` (stereo partly drawn) [lactose]: the Km in experiment [3] was 18.5 ± 0.5 mM.
